Legend:
KAT2 [1] = biological target: T1, KAT2 (Arabidopsis thaliana, UniProt Q38849); test: two-electrode voltage clamp in Xenopus oocytes expressing the channel, […]; type: cell-based
KAT1 = KAT1 (Arabidopsis thaliana, UniProt Q39128); test: as above; type: cell-based
GORK = biological target: T2, GORK (Arabidopsis thaliana, UniProt Q94A76); test: as above; type: cell-based
T2 sequence (Q94A76 1-820): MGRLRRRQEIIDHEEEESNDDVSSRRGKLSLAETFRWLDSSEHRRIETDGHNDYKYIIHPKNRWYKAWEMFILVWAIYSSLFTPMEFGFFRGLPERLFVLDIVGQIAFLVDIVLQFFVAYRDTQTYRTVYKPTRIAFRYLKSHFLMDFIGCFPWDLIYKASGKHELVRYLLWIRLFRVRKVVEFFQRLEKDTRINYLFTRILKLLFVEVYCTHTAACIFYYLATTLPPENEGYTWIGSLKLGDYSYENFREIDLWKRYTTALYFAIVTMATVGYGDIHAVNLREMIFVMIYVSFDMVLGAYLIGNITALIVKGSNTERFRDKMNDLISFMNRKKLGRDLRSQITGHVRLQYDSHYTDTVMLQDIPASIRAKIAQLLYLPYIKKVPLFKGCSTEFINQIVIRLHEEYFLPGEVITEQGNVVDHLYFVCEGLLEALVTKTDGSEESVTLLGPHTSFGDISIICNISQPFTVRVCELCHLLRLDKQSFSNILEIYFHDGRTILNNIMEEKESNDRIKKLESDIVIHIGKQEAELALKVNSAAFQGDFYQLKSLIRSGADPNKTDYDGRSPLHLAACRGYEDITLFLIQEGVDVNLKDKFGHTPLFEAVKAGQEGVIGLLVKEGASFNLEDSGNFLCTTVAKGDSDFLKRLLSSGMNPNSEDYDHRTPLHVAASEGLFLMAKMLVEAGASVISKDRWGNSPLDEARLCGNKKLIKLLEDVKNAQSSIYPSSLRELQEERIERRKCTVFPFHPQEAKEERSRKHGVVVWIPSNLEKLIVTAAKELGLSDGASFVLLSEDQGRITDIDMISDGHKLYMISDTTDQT

KAT2 [2] = biological target: T1, KAT2; test: cell-based; conditions: read-out: % inhibition at 0.5 mM

T1 sequence (Q38849 whole entry): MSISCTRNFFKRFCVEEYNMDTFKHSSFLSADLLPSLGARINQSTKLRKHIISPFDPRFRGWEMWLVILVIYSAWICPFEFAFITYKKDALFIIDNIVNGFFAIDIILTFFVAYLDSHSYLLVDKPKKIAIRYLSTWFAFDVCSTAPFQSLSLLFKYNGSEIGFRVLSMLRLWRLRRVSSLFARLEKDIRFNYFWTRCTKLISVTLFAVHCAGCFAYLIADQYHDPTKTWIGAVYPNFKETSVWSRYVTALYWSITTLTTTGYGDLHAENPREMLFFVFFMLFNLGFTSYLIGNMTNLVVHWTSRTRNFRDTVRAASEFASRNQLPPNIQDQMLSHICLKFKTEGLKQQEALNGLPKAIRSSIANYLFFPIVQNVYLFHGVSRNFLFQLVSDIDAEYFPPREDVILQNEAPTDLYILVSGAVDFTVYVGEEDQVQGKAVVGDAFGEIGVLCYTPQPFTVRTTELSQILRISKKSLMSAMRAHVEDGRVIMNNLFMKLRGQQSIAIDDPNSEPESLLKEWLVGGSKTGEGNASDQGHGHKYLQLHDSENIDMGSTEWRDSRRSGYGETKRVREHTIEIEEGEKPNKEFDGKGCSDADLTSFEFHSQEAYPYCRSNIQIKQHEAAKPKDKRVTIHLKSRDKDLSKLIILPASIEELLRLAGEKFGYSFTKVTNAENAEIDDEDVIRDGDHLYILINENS
KAT1, sequence (Q39128 whole entry): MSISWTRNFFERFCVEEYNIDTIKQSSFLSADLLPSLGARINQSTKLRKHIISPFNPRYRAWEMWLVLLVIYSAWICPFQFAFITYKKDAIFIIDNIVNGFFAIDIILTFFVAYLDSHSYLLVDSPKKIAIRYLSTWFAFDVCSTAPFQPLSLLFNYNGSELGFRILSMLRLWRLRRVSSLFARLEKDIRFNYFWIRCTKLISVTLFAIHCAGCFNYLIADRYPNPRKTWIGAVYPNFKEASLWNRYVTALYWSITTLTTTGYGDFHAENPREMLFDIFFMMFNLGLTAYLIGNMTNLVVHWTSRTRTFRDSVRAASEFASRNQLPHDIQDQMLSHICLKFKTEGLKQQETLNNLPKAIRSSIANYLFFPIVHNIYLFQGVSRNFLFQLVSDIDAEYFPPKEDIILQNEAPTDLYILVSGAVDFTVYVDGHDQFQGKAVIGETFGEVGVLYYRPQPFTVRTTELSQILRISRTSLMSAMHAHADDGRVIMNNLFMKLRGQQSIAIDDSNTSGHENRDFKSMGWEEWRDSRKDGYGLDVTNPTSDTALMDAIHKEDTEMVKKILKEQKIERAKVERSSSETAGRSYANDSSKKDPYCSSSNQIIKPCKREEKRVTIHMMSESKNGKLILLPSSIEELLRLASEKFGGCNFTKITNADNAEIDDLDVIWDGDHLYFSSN

SMILES	two-electrode voltage clamp in Xenopus oocytes expressing the channel, 500 μM (KAT2 [1])	two-electrode voltage clamp in Xenopus oocytes expressing the channel, 500 μM (KAT1)	two-electrode voltage clamp in Xenopus oocytes expressing the channel, 500 μM (GORK)	inhibition at 500 µM (KAT2 [2])
O=C(O[C@@H]1Cc2c(O)cc(O)cc2O[C@H]1c1ccc(O)c(O)c1)c1cc(O)c(O)c(O)c1 [CG, (−)-catechin gallate]	Both CG and GCG inhibited KAT1 and KAT2 (Figure 3A,B).	Both CG and GCG inhibited KAT1 and KAT2 (Figure 3A,B).	GORK was strongly inhibited by CG and GCG, whereas AKT1 and AKT2 were less sensitive to CG and GCG.	–
O=C(O[C@@H]1Cc2c(O)cc(O)cc2O[C@H]1c1cc(O)c(O)c(O)c1)c1cc(O)c(O)c(O)c1 [GCG, (−)-gallocatechin gallate]	Both CG and GCG inhibited KAT1 and KAT2 (Figure 3A,B).	Both CG and GCG inhibited KAT1 and KAT2 (Figure 3A,B).	GORK was strongly inhibited by CG and GCG, whereas AKT1 and AKT2 were less sensitive to CG and GCG.	–
CC[N+](CC)(CC)CC [TEA, tetraethylammonium]	–	–	–	14%
